In ChEMBL document CHEMBL3885861, “Open TG-GATES”:

Species: Rattus norvegicus
Assay: Open TG-GATES - Regimen: Single
Format: toxicity, organism-based, Sprague-Dawley
Parameters: regimen Single, gender Male, age 6 weeks
Conditions: in vivo, po, 100 mg/kg, route gavage, dose level Middle; for APTT / Bas / Eos / Fbg / Hb / Ht / Lym / MCH / MCHC / MCV / Mono / Neu / PT / Plat / RBC / Ret / WBC: tissue Blood; for KIDNEY_L / KIDNEY_R / KIDNEY_TOTAL: tissue Kidney; for LIVER: tissue Liver; for A/G / ALP / ALT / AST / BUN / CRE / Ca / Cl / DBIL / GLC / IP / K / LDH / Na / PL / RALB / TBIL / TC / TG / TP / gamma-GTP: tissue Plasma

`Brc1ccccc1` [BROMOBENZENE] gave a TERMINAL_BW (3 h) of 191 g, an APTT (3 h) of 16 s and a Bas (3 h) of 0%. It also gave an Eos (3 h) of 0.6%, a Fbg (3 h) of 266.6 mg/dL and a Hb (3 h) of 13.4 g/dL. The Ht (3 h) was 40.5%, the Lym (3 h) was 79.2% and the MCH (3 h) was 21.4 pg. It also gave an MCHC (3 h) of 33%, an MCV (3 h) of 64.7 fL and a Mono (3 h) of 3.6%. The Neu (3 h) was 16%, the PT (3 h) was 12.3 s and the Plat (3 h) was 111.5 x10_4/uL. It also gave an RBC (3 h) of 625.8 x10_4/ul, a Ret (3 h) of 10% and a WBC (3 h) of 74.4 x10_2/uL. The KIDNEY_L (3 h) was 0.8 g, the KIDNEY_R (3 h) was 0.8 g and the KIDNEY_TOTAL (3 h) was 1.6 g. The LIVER (3 h) was 7.8 g, the A/G (3 h) was 0.9 and the ALP (3 h) was 1591.2 IU/L. It also gave an ALT (3 h) of 51 IU/L, an AST (3 h) of 76.8 IU/L and a BUN (3 h) of 8.6 mg/dL. It also gave a CRE (3 h) of 0.2 mg/dL, a Ca (3 h) of 11 mg/dL and a Cl (3 h) of 105.8 meq/L. It also gave a DBIL (3 h) of 0.004 mg/dL, a GLC (3 h) of 183 mg/dL and an IP (3 h) of 11.1 mg/dL. For the same compound, the K (3 h) was 3.9 meq/L, the LDH (3 h) was 80.8 IU/L and the Na (3 h) was 142.8 meq/L. The PL (3 h) was 155.6 mg/dL, the RALB (3 h) was 2.7 g/dL and the TBIL (3 h) was 0.044 mg/dL. It also gave a TC (3 h) of 87.4 mg/dL, a TG (3 h) of 42.6 mg/dL and a TP (3 h) of 5.7 g/dL. It also gave a gamma-GTP (3 h) of 1.2 IU/L, a TERMINAL_BW (6 h) of 190.5 g and an APTT (6 h) of 15.9 s. For the same compound, the Bas (6 h) was 0%, the Eos (6 h) was 0.8% and the Fbg (6 h) was 269.2 mg/dL. It also gave a Hb (6 h) of 13.4 g/dL, a Ht (6 h) of 39.7% and a Lym (6 h) of 78.8%. For the same compound, the MCH (6 h) was 21.4 pg, the MCHC (6 h) was 33.8% and the MCV (6 h) was 63.3 fL. It also gave a Mono (6 h) of 2.4%, a Neu (6 h) of 17.6% and a PT (6 h) of 12.4 s. The Plat (6 h) was 107.8 x10_4/uL, the RBC (6 h) was 627 x10_4/ul and the Ret (6 h) was 8.6%. The WBC (6 h) was 68.9 x10_2/uL, the KIDNEY_L (6 h) was 0.8 g and the KIDNEY_R (6 h) was 0.8 g. For the same compound, the KIDNEY_TOTAL (6 h) was 1.6 g, the LIVER (6 h) was 6.8 g and the A/G (6 h) was 0.9. It also gave an ALP (6 h) of 1550 IU/L, an ALT (6 h) of 41.8 IU/L and an AST (6 h) of 75.4 IU/L. For the same compound, the BUN (6 h) was 9.4 mg/dL, the CRE (6 h) was 0.1 mg/dL and the Ca (6 h) was 10.8 mg/dL. The Cl (6 h) was 105.4 meq/L, the DBIL (6 h) was 0.014 mg/dL and the GLC (6 h) was 179.8 mg/dL. The IP (6 h) was 11 mg/dL, the K (6 h) was 3.8 meq/L and the LDH (6 h) was 64.4 IU/L. For the same compound, the Na (6 h) was 141.2 meq/L, the PL (6 h) was 137.8 mg/dL and the RALB (6 h) was 2.6 g/dL. The TBIL (6 h) was 0.054 mg/dL, the TC (6 h) was 78.4 mg/dL and the TG (6 h) was 41.4 mg/dL. It also gave a TP (6 h) of 5.6 g/dL, a gamma-GTP (6 h) of 1.6 IU/L and a TERMINAL_BW (9 h) of 190 g. The APTT (9 h) was 15.5 s, the Bas (9 h) was 0% and the Eos (9 h) was 0.6%. It also gave a Fbg (9 h) of 266.4 mg/dL, a Hb (9 h) of 13.5 g/dL and a Ht (9 h) of 40.2%. It also gave a Lym (9 h) of 76.8%, an MCH (9 h) of 21.5 pg and an MCHC (9 h) of 33.6%. For the same compound, the MCV (9 h) was 63.9 fL, the Mono (9 h) was 2.2% and the Neu (9 h) was 19.4%. For the same compound, the PT (9 h) was 12.3 s, the Plat (9 h) was 115.9 x10_4/uL and the RBC (9 h) was 629 x10_4/ul. For the same compound, the Ret (9 h) was 9.1%, the WBC (9 h) was 79.5 x10_2/uL and the KIDNEY_L (9 h) was 0.8 g. For the same compound, the KIDNEY_R (9 h) was 0.8 g, the KIDNEY_TOTAL (9 h) was 1.5 g and the LIVER (9 h) was 6.8 g. For the same compound, the A/G (9 h) was 0.9, the ALP (9 h) was 1400.4 IU/L and the ALT (9 h) was 39.4 IU/L. For the same compound, the AST (9 h) was 70.8 IU/L, the BUN (9 h) was 13 mg/dL and the CRE (9 h) was 0.2 mg/dL. For the same compound, the Ca (9 h) was 10.8 mg/dL, the Cl (9 h) was 107 meq/L and the DBIL (9 h) was 0.02 mg/dL. It also gave a GLC (9 h) of 179.2 mg/dL, an IP (9 h) of 10.8 mg/dL and a K (9 h) of 4 meq/L. For the same compound, the LDH (9 h) was 78.2 IU/L, the Na (9 h) was 141.8 meq/L and the PL (9 h) was 147.8 mg/dL. For the same compound, the RALB (9 h) was 2.6 g/dL, the TBIL (9 h) was 0.064 mg/dL and the TC (9 h) was 88 mg/dL. The TG (9 h) was 29.4 mg/dL, the TP (9 h) was 5.5 g/dL and the gamma-GTP (9 h) was 1.4 IU/L. For the same compound, the TERMINAL_BW (24 h) was 193.2 g, the APTT (24 h) was 15.4 s and the Bas (24 h) was 0%. The Eos (24 h) was 0.8%, the Fbg (24 h) was 224.4 mg/dL and the Hb (24 h) was 12.9 g/dL. The Ht (24 h) was 38%, the Lym (24 h) was 79.6% and the MCH (24 h) was 21.5 pg. It also gave an MCHC (24 h) of 33.9%, an MCV (24 h) of 63.3 fL and a Mono (24 h) of 2.8%. It also gave a Neu (24 h) of 16.4%, a PT (24 h) of 12.9 s and a Plat (24 h) of 112.9 x10_4/uL. The RBC (24 h) was 600.8 x10_4/ul, the Ret (24 h) was 8.5% and the WBC (24 h) was 84.8 x10_2/uL. The KIDNEY_L (24 h) was 0.9 g, the KIDNEY_R (24 h) was 0.9 g and the KIDNEY_TOTAL (24 h) was 1.7 g. The LIVER (24 h) was 8.9 g, the A/G (24 h) was 0.9 and the ALP (24 h) was 1694.4 IU/L. The ALT (24 h) was 52.2 IU/L, the AST (24 h) was 79 IU/L and the BUN (24 h) was 12 mg/dL. It also gave a CRE (24 h) of 0.2 mg/dL, a Ca (24 h) of 10.4 mg/dL and a Cl (24 h) of 106 meq/L. The DBIL (24 h) was 0.018 mg/dL, the GLC (24 h) was 186 mg/dL and the IP (24 h) was 8.1 mg/dL. The K (24 h) was 4 meq/L, the LDH (24 h) was 103.2 IU/L and the Na (24 h) was 142.6 meq/L. For the same compound, the PL (24 h) was 146.8 mg/dL, the RALB (24 h) was 2.5 g/dL and the TBIL (24 h) was 0.062 mg/dL. It also gave a TC (24 h) of 76.8 mg/dL, a TG (24 h) of 100 mg/dL and a TP (24 h) of 5.4 g/dL. It also gave a gamma-GTP (24 h) of 1.4 IU/L.
